Assay results reported in US20220133894A1, “BISPHOSPHONATE-LINKED COMPOUNDS” (OREGON HEALTH & SCIENCE UNIVERSITY, priority 2019, published 2022).

Legend:
MEK1/2 and ERK1/2 = assay: Western blot of MEK1/2 and ERK1/2 phosphorylation in RANKL treated osteoclast cells; format: cell-based, mouse; conditions: 10 μM KBU2046, RANKL treated RAW 267.4 cells
LNCaP cells = assay: SRB growth inhibition assay, LNCaP; format: cell-based, human; conditions: 10 μM enzalutamide, 10 μM KBU2046 added to control or enzalutamide treated cells, 72 hours
Description: (§1) LNCaP or VCaP cells cultured in hormone free media were treated with R1881 (R), KBU2046 (46) and/or enzalutamide (E). (FIGS. 3A and 3B) Effects on AR-responsive gene expression. PSA expression was measured by qRT/PCR, normalized to GAPDH and expressed as a percent of control cells (N=3 replicates); * denotes P<0.05 for groups separated by bar. (FIGS. 3C and 3D) Effects on cell growth. Three day growth assays were performed. Data are the number of viable cells, expressed as % of control (N=3 replicates); * P<0.05 compared to control. (E) Effects on AR activation. Western blots of nuclear (N) and cytoplasmic (C) preparations of cell extracts were probed for AR, laminin 1 or α-tubulin. (FIGS. 3F and 3G) Effects on tumor outgrowth after androgen deprivation therapy. LNCaP/AR-luc cells were implanted subcutaneously (N=6 mice/cohort) or orthotopic (N=15 mice/cohort were implanted; N=5 yielded tumors) into castrate mice, treatment with KBU2046 began as noted, and weekly IVIS imaging performed. Data are tumor size, expressed as luminescence intensity. All data are expressed as mean±SEM.
(§2) Enzalutamide mediated growth inhibition was assessed using Sulforhodamine B (SRB) growth inhibition assays, were performed as previously described (49). In brief, LNCaP and VCaP cells were pre-incubated in charcoal-striped medium for 48 hours and then seeded (1.9×10^4) in 96-well plates. […]

[1] = system: prostate specific antigen (PSA); assay: PSA expression by qRT/PCR in VCaP cells; format: cell-based, human
Description: Cells were cultured in media depleted of androgen and after a washout of 72 hrs were treated with the synthetic androgen R1881, KBU2046, enzalutamide and/or vehicle (control), and resultant effects upon induction of the androgen-responsive gene, prostate specific antigen (PSA) were measured (FIG. 3A).
as §1
RNA was isolated and qRT/PCR performed as previously described by us (Ding et al., J Biomol Tech 18, 321-330 (2007)). Resultant data were analyzed using the 2^−ΔΔt method (Livak et al., Methods 25, 402-408 (2001)), normalized to GAPDH, for the following primer/probe sets (ABI) PSA (Hs02576345_m1) and GAPDH (Hs99999905_m1). Assays were performed in triplicate, and were repeated.

[2] = system: human prostate and breast cancer; conditions: oral administration, nanomolar concentrations; cited from earlier work
VCaP cells = assay: SRB growth inhibition assay, VCaP; format: cell-based, human; conditions: 10 μM enzalutamide, 10 μM KBU2046 added to control or enzalutamide treated cells, 72 hours
Description: as §1, §2

PC3-M cells = assay: PCa subcutaneous implantation, tumor growth; format: in vivo; conditions: oral 80 mg KBU2046/kg, weekly intraperitoneal docetaxel 20 mg/kg, KBU2046 added to control or docetaxel treated mice
Description: FIG. 1A depicts the effect of chemotherapy on the growth of androgen independent PC3-M PCa cells in vitro. Data are the mean±SEM (N=3 replicates) of cell viability in a 3 day growth assay in the presence of 10 μM KBU2046 or vehicle (control) treated with docetaxel or cabazitaxel. FIG. 1B depicts the effect of chemotherapy on the growth of androgen independent PCa cells in vivo. Mice received subcutaneous implants of PC3-M cells, were monitored until tumors were detectable (250 mm^3), and then treated daily with oral 80 mg KBU2046/kg (46) or vehicle (CO) and with weekly intraperitoneal docetaxel (doc) at 0 or 20 mg/kg, beginning on day 1, and tumor size measured. Data are mean±SEM, with N=20 mice per cohort.
PCa subcutaneous implantation: 2.5×10^5 PC3-M cells in sterile PBS were implanted into the right flank of 6-7 week old male athymic nude mice (Charles River) and tumor growth measurements were performed twice a week as previously described by us (Gordon et al., Chemotherapy-induced monoamine oxidase expression in prostate carcinoma functions as a cytoprotective resistance enzyme and associates with clinical outcomes. PLoS One 9, e104271 (2014)). […] Tumor measurements were obtained in a blinded fashion, and tumor volumes were calculated with the following formula: length×(width)^2×0.5.

LNCaP/AR-luc cells = assay: Castration resistant PCa orthotopic implantation, tumor outgrowth; format: in vivo, mice; conditions: orthotopic implants, 80 mg/kg KBU2046 oral, treatment from 12 weeks
Description: To complete our assessments of the androgen related paradigm, the effect of KBU2046 on resistance to hormone therapy was evaluated. The outgrowth of LNCaP/AR-luc cells in castrate mice is routinely utilized as a model to emulate the transition to a castration resistant phenotype (Tran et al., Science 324, 787-790 (2009)). In this model, tumor outgrowth is detectable ˜8 weeks post implantation, and growth kinetics are typically monitored until 16 weeks post implantation. Here, two treatment approaches were investigated, the effects of beginning treatment early at 4 weeks, or late at 12 weeks, and were performed in mice receiving subcutaneous or orthotopic implants, respectively (FIGS. 3F and 3G).
LNCaP or VCaP cells cultured in hormone free media were treated with R1881 (R), KBU2046 (46) and/or enzalutamide (E). (FIGS. 3A and 3B) Effects on AR-responsive gene expression. PSA expression was measured by qRT/PCR, normalized to GAPDH and expressed as a percent of control cells (N=3 replicates); * denotes P<0.05 for groups separated by bar. (FIGS. 3C and 3D) Effects on cell growth. Three day growth assays were performed. Data are the number of viable cells, expressed as % of control (N=3 replicates); * P<0.05 compared to control. (E) Effects on AR activation. […] Data are tumor size, expressed as luminescence intensity. All data are expressed as mean±SEM. […]

O=C1c2ccccc2OCC1c1ccc(F)cc1 (stereo not shown) [KBU2046, 3-(4-fluorophenyl)chroman-4-one]
MEK1/2 and ERK1/2 phosphorylation (MEK1/2 and ERK1/2): inhibition
cell growth (LNCaP cells): no significant effect
decrease of PSA expression in R1881 treated cells ([1]; VCaP cells, R1881 treated): 36%
relative increase of PSA expression in control cells ([1]; VCaP control cells, very low baseline): 14%
bone destruction [2]: decreases
metastasis [2]: inhibits
survival [2]: prolongs
cell growth (VCaP cells): no significant effect
tumor growth (PC3-M cells): did not significantly affect
tumor growth (outgrowth in castrate mice) (LNCaP/AR-luc cells): did not alter
